Data as given in article PMC9875641, “Ophthalmic Solution of Smart Supramolecular Peptides to Capture Semaphorin 4D against Diabetic Retinopathy” (Advanced Science, 2022).

Assays:
[1] = Intraocular distribution and retention after topical instillation; type: in vivo, mouse; details: for presence (retention) in the mice vitreous humor: FITC-labeled peptide eye drops, fluorescence of vitreous humor at different time points, n = 3 (each sample from 5 mice); for intraocular distribution of fluorescence after topical instillation: FITC-labeled peptide, 10 µL eye drop once, 12 h after instillation, fluorescence and LC/MS
Method: To study the intraocular distribution of the FITC‐labeled SSP‐1 and SSP‐2 after topical instillation, fluorescence observation and liquid chromatography‐mass spectrometry (LC/MS) were performed on the entire eyes of mice, the frozen sections of the eyes, and their vitreous humor (Figure 7A–D). […] The topical instillation of SSP eye drop was instilled once with 10 µL before fluorescence observation. However, intraocular injection was administrated once with the maximum volume of 2 µL to avoid overdose induced high intraocular pressure due to the limited volume of the vitreous cavity. […] Next, we studied the intraocular pharmacokinetics of SSP‐1 and SSP‐2 after topical instillation. […] Moreover, we established an in vitro blood‐retina barrier (BRB) model to investigate the transferring efficiency of SSP‐1 and SSP‐2 across the posterior ocular absorption barriers. […]
Intraocular Distribution of FG/FH. Male mice (20-25 g) derived from Charles River (Beijing, China) were used in this experiment. 10 μL FITC-labeled FH or FG (dissolved in artificial tear fluid, 20 nM) were gently dripped in the conjunctival sac.
The upper and lower eyelids were massaged to make homodisperse on the eye surface. After 12h FITC-labeled FH or FG were instilled, the mice were sacrificed and the eyeballs were wash in the PBS solution. luminescence signal was detected via the In-Vivo FX PRO system (Bruker).
Statistical analysis. Statistical analysis was conducted using Graphpad Prism 8.0 software. All data were expressed by mean ± SD. Unpaired two-tailed Student’s t-test (two groups) or one-way ANOVA (more than 2 groups) was used to analyze the statistical significances of the data. Person’s correlation analysis was conducted to […]

[2] = TEM morphology and size of SSP nanostructures; type: physicochemical; details: for morphology after incubation with sSema4D: sSema4D 6 h, room temperature, mass ratio sSema4D/SSP 1/1000
Method: TP-1 to TP-12, SSP-1 and SSP-2 […]
were purchased by GL Biochem (Shanghai) Ltd.
Preparation of peptide-based nanomaterials. SSP-1 or SSP-2 monomers were dissolved in artificial tears at a concentration of 4.0 mM and sonicated for 30 min, followed by quick injection into water at a volume ratio of 1:200 for artificial tears and H2O to obtain the nanomaterials solution (20 μM).
TEM for the morphology. The SSP-1 or SSP-2 solution with the concentration of 20 μM (10 μL) was placed dropwise onto a copper mesh for 5 min, then most of the liquid was removed through a filter paper. Uranyl acetate solution (10 μL) were employed to stain the samples for 5 min, followed by drying the spare liquid with the filter. Finally, the copper mesh was washed with 10 μL of deionized water, which was blotted after staining and drying at room temperature. All of the samples were observed by TEM (Tecnai G2 20 S-TWIN) at an accelerating voltage of 120 kV. […]

pericytes = assay: Transwell migration of pericytes induced by recombinant Sema4D; type: cell-based, mouse; details: transwell assay, n = 3
sSema 4D = molecular target: T1, sSema 4D (Homo sapiens, UniProt Q92854); assay: ELISA binding affinity of TPs and SSPs to sSema 4D (and BSA)
T1 construct: purchased Novoprotein Ltd. (Suzhou, China)
T1 sequence (Q92854 22-734 limits assumed): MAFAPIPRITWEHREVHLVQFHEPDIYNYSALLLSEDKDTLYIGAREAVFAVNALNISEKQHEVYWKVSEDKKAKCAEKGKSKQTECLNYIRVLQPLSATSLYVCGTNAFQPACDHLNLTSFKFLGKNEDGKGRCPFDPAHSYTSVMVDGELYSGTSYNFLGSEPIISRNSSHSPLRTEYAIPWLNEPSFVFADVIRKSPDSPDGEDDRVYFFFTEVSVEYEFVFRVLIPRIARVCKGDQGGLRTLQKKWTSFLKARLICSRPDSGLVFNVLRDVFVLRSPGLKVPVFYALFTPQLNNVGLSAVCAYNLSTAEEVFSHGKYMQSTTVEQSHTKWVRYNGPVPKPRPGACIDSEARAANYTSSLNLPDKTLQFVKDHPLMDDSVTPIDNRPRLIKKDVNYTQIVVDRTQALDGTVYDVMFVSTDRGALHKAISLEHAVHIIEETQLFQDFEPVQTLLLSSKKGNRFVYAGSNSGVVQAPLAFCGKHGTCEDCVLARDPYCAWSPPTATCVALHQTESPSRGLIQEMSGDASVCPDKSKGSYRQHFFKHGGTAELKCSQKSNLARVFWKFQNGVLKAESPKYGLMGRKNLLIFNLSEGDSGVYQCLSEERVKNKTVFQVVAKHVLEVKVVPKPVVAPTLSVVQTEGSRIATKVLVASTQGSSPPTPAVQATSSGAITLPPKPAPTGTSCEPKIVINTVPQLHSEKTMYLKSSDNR
Method: To carry out the library screening, we first labeled the sSema4D with fluorescein isothiocyanate isomer (FITC), as shown in Figure 2E. Next, ≈10^6 beads library was incubated with FITC‐labeled sSema4D for 6 hours. The beads were thoroughly washed with DMF, water and methanol. Finally, under the fluorescence microscope, the beads with […] to sSema4D or FITC‐labeled sSema4D through noncovalent bonding were identified in Figure 2F. We selected twelve strongest putative fluorescent beads by physical separation. Subsequently, the corresponding peptides were cleaved off with BrCN from beads and analyzed by automatic Edman sequencing. The structures and sequence of transformable peptides (TPs) were determined and summarized (Figure S2, Supporting Information). TP‐1 to TP‐12 were resynthesized into solid phase and purified by high performance liquid chromatography (HPLC). The binding affinity of TPs toward sSema 4D was measured by enzyme‐linked immunosorbent assay (ELISA) and surface plasmon resonance imaging (SPRi). […] TP‐2 and TP‐7 were selected as the candidate TP binding sSema 4D to construct SSP. Subsequent SSP monomers (SSP‐1, sequence: C16‐FFVLK‐KQKRPRH; SSP‐2 C16‐FFVLK‐KNKAAKG) were synthesized and characterized by HPLC and Matrix‐assisted laser desorption/ionization time‐of‐flight mass spectrometry (MALDI‐TOF‐MS).

retina = assay: Biosafety in the retina after intraocular injection; type: in vivo, mouse; details: for pathological changes in the retina (HE staining): 30 d after intraocular injection; for abnormalities in retinal pigment epithelium, rod and cone layer, outer nuclear layer and retinal ganglion cells (electron microscopy): mouse, in vivo
Text: After 30 d of SSP‐1 and SSP‐2 intraocular injection, the biosafety of SSP‐1 and SSP‐2 was systematically studied by H&E staining and electron microscopy.

endothelial cells = assay: Wound-healing and transwell migration of endothelial cells induced by recombinant Sema4D; type: cell-based, mouse; details: wound-healing and transwell assays, n = 3; effect equal to anti-Sema4D antibody
[3] = self-assembled in water, 20 μM, without sSema4D

Row | Substance | presence (retention) in the mice vitreous humor [1] | intraocular distribution of fluorescence after topical instillation [1] | morphology after incubation with sSema4D [2] | average length of nanorods [2, 3] [nm] | recombinant Sema4D protein-induced pericyte migration (pericytes) | binding affinity with sSema4D on ELISA, compared with TPs (sSema 4D) | pathological changes in the retina (HE staining) (retina) | abnormalities in retinal pigment epithelium, rod and cone layer, outer nuclear layer and retinal ganglion cells (electron microscopy) (retina) | recombinant Sema4D protein-induced endothelial cell migration (endothelial cells) | average size of NPs [2, 3] [nm]
1 | C16‐FFVLK‐KNKAAKG [SSP-2, smart supramolecular peptide, C16‐FFVLK‐KNKAAKG, self-assembling, captures sSema4D] | up to 5 days | mainly in the retina and vitreous humor | long‐size of nanofibrillar structures | 190 ± 23.9 | reduced | higher binding affinity compared with TPs | no significant pathological changes | no significant abnormalities | inhibited | 
2 | C16‐FFVLK‐KQKRPRH [SSP-1, smart supramolecular peptide, C16‐FFVLK‐KQKRPRH, self-assembling, captures sSema4D] | up to 5 days | mainly in the retina and vitreous humor | dense NFs network structures |  | reduced | higher binding affinity compared with TPs | no significant pathological changes | no significant abnormalities | inhibited | 44.8 ± 2.9
